Activity calls are given as the source filed them.
Columns and labels:
[1] = target: T1, Estrogen receptor (Homo sapiens, UniProt P03372);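 note: potency for inhibiting coactivator peptide recruitment to the receptor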
T1 sequence (P03372 whole entry): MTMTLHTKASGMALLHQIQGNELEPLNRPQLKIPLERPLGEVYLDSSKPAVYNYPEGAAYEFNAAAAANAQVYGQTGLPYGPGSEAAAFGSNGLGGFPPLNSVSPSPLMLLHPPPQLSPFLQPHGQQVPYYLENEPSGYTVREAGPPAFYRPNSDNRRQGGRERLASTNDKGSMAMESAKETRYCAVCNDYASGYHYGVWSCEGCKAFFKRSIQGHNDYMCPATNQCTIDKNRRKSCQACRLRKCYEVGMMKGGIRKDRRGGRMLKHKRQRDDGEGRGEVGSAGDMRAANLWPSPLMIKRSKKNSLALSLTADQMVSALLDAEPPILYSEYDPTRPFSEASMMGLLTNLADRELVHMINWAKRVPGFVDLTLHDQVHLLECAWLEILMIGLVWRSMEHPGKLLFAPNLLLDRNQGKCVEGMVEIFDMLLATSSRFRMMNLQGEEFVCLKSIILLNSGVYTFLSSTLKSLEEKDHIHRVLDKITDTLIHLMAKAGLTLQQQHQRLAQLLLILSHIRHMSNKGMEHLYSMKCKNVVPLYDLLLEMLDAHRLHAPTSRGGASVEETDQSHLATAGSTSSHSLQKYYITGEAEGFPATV

[2] = viability of PTEN-deleted HCT116 cells – cell-based, HCT116 PTEN knockout, dose response (AID 1047); type: functional;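 note: HCT116 colon tumor cells with PTEN knocked out; cells exposed to compound for 60 hours before readout; potency for loss of cell viability measured by luminescence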
[3] = viability of HCT116 lacking mutant beta-catenin – cell-based, human colon tumor, dose response (AID 1045); type: functional;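 note: HCT116 colon tumor cells with beta catenin knocked out; cells exposed to compound for 60 hours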
[4] = target: T2, G-protein coupled receptor 55 (Homo sapiens, UniProt Q9Y2T6); assay: selective activators of receptor GPR55 – imaging, U2OS cells, beta-arrestin-GFP redistribution, primary screen (AID 1961); type: functional
T2 sequence (Q9Y2T6 whole entry): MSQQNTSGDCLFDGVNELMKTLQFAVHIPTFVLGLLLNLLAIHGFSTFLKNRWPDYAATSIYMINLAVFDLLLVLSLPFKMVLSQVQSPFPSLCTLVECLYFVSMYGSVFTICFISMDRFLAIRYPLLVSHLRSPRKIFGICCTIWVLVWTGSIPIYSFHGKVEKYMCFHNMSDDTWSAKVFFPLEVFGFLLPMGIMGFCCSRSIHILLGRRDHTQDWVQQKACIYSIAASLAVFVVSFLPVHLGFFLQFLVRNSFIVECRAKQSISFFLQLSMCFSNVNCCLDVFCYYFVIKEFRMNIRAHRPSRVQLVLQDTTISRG

[5] = target: Neurotensin receptor type 1 (Homo sapiens, UniProt P30989); type: functional;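 note: Image-based confirmatory dose-response assay measuring agonist activity at NTR1; NTR1-expressing U2OS osteosarcoma cells imaged for beta-arrestin GFP spot formation; agonist potency where compounds increase beta-arrestin recruitment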
Chain of Neurotensin receptor type 1 (P30989 whole entry): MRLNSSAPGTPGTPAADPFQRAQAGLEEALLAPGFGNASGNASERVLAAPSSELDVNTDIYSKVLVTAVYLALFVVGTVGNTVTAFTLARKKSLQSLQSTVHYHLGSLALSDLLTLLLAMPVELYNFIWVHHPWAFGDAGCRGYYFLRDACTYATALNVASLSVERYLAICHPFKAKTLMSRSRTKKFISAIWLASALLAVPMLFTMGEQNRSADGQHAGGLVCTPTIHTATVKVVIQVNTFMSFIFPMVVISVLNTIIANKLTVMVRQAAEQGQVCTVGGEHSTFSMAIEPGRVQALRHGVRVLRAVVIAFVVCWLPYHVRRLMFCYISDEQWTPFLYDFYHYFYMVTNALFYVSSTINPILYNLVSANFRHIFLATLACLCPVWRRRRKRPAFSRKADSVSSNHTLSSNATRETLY

[6] = tested on: HEK293; assay: cells; type: functional, cell-based; details: Homo sapiens
[7] = target: Nucleotide-binding oligomerization domain-containing protein 2 (Homo sapiens, UniProt Q9HC29); assay: inhibition of NOD2-driven NF-kB reporter – cell-based, luminescence, uHTS, HEK293 (AID 1566); type: functional
Chain of Nucleotide-binding oligomerization domain-containing protein 2 (Q9HC29 whole entry, the tested form may be a part): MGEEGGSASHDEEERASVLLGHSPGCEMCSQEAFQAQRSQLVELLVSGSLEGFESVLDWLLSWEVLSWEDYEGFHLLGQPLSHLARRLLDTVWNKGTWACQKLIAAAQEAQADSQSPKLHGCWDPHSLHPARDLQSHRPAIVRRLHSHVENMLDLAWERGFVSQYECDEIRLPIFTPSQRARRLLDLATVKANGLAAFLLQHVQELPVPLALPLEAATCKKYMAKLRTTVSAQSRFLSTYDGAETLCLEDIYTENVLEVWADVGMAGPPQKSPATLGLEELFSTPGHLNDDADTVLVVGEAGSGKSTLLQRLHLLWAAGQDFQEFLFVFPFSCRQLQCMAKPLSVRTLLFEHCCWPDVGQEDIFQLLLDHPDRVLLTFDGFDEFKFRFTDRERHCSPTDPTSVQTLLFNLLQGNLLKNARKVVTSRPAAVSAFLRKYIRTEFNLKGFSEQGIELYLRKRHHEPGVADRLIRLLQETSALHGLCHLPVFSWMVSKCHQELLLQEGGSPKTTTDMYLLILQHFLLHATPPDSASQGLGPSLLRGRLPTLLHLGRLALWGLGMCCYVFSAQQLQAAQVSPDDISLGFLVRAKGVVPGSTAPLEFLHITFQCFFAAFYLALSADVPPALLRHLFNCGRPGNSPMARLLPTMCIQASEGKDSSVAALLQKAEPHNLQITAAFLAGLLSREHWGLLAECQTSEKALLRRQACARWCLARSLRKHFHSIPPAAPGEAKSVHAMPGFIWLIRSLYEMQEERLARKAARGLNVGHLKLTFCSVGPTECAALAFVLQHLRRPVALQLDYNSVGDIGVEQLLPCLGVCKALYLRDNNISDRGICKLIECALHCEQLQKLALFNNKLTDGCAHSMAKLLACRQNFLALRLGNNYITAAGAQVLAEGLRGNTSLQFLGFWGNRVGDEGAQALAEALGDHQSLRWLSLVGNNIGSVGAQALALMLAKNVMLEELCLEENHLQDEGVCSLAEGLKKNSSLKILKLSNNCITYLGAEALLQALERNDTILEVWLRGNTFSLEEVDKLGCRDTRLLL

[8] = tested on: HEK293; assay: NOD2 signaling inhibitors in MDP-stimulated cells, cell-based, uHTS, luminescence (AID 2001); type: functional; details: Homo sapiens
[9] = Luminescence Cell-Based Dose Retest to Confirm Inhibitors of Cancer Stem Cells. [Related pubchem assays (depositor defined):AID2717, AID2721]; type: functional; details: Homo sapiens
[10] = tested on: HEK293; assay: cells; type: functional, cell-based; details: Homo sapiens; remark: listed apart in the source
[11] = tested on: INS1; assay: INS-1E survival protection against cytokine death – cell-based, luminescence, retest, dose response (AID 449756); type: functional; details: Rattus norvegicus;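 note: cell death triggered by IL-1 beta plus TNF-alpha plus IFN-gamma mixture; protective hits raise ATP signal compared with cytokine alone wells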
[12] = tested on: HEK293; assay: inhibition of NOD1-driven NF-kB reporter – cell-based, luminescence, uHTS, primary screen (AID 1578); type: functional; details: Homo sapiens
[13] = tested on: HEK293; assay: cells; type: functional, cell-based; details: Homo sapiens; remark: listed apart in the source
[14] = Trypanosoma cruzi growth suppression in host cells – NIH3T3 host cells, beta-gal luminescence, confirmation (AID 2044); type: functional, cell-based;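 note: intracellular parasites grown in NIH/3T3 mouse fibroblasts as host cells; luminescent beta-galactosidase reporter signal from transgenic T. cruzi replicating inside host cells; inhibitors lower the luminescence signal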
[15] = target: T3, Alkaline phosphatase, tissue-nonspecific isozyme (Homo sapiens, UniProt P05186); assay: potency against alkaline phosphatase TNAP – biochemical, luminescent, dose response, SAR follow-up (AID 1056)
T3 sequence (P05186 whole entry): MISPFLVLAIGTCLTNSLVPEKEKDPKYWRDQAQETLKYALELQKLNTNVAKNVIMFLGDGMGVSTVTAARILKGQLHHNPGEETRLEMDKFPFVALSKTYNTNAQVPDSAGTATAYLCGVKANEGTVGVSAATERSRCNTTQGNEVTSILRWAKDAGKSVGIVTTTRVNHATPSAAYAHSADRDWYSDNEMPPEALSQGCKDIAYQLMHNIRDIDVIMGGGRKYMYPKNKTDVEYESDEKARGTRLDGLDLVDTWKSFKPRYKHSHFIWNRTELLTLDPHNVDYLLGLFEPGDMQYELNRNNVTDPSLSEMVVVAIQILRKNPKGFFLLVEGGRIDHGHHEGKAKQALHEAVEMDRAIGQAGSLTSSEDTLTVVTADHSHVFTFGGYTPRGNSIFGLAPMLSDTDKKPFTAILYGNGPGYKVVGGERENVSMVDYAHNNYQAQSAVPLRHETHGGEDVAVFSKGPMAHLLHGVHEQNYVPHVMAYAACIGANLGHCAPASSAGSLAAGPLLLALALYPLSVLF

[16] = target: Alkaline phosphatase, placental type (Homo sapiens, UniProt P05187); assay: human placental alkaline phosphatase inhibition – biochemical, luminescence, confirmation (AID 1512); type: functional
Chain of Alkaline phosphatase, placental type (P05187 whole entry): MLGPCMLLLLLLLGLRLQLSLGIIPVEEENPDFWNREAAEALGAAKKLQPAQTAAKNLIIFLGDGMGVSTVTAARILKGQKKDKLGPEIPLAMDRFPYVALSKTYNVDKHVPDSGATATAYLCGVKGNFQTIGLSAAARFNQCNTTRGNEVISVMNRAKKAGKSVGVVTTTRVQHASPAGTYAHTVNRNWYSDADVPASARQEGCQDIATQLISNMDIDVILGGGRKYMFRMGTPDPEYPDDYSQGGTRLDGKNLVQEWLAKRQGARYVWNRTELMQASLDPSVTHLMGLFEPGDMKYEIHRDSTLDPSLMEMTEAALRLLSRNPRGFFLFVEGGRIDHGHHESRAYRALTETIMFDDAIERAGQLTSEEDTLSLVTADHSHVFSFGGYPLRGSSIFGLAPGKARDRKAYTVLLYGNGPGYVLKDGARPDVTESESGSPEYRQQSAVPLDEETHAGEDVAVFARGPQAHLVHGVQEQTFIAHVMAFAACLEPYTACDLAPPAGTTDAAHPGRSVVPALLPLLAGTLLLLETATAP

[17] = target: T2, G-protein coupled receptor 55; assay: SAR Analysis of Selective Antagonists of GPR55 using an Image-Based Assay - Set 4. [Related pubchem assays (depositor defined):AID2013, AID2026]; type: functional
[18] = target: T4, G-protein coupled receptor 35 (Homo sapiens, UniProt Q9HC97); assay: SAR analysis of Antagonists of the GPR35 Receptor using an Image-Based Assay - Set 6. [Related pubchem assays (depositor defined):AID2013, AID2026]; type: functional
T4 sequence (Q9HC97 whole entry): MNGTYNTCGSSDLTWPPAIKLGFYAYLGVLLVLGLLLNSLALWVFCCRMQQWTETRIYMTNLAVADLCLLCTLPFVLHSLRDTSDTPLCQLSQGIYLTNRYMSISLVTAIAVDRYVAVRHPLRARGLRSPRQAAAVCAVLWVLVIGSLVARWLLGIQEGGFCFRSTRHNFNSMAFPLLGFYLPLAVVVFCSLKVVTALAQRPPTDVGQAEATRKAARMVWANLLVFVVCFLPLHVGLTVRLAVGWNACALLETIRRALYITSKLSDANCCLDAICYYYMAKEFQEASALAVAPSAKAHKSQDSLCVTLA

[19] = target: T5, Cannabinoid receptor 2 (Homo sapiens, UniProt P34972); assay: SAR analysis of antagonists of the Cannabinoid Receptor 2 using an Image-Based Assay - Set 3. [Related pubchem assays (depositor defined):AID2013, AID2026]; type: functional
T5 sequence (P34972 whole entry): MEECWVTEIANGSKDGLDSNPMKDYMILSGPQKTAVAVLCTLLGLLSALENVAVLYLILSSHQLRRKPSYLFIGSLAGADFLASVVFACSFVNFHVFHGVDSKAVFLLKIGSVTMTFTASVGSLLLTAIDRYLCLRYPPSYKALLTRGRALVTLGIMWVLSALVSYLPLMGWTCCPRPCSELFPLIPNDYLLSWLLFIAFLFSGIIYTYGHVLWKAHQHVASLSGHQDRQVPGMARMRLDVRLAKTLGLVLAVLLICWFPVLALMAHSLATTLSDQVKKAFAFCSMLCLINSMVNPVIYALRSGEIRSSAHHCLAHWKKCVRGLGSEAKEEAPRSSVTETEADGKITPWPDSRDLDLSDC

[20] = target: T6, Cannabinoid receptor 1 (Homo sapiens, UniProt P21554); assay: SAR analysis of antagonists of the Cannabinoid Receptor 1 using an Image-Based Assay - Set 4. [Related pubchem assays (depositor defined):AID2013, AID2026]; type: functional
T6 sequence (P21554 whole entry): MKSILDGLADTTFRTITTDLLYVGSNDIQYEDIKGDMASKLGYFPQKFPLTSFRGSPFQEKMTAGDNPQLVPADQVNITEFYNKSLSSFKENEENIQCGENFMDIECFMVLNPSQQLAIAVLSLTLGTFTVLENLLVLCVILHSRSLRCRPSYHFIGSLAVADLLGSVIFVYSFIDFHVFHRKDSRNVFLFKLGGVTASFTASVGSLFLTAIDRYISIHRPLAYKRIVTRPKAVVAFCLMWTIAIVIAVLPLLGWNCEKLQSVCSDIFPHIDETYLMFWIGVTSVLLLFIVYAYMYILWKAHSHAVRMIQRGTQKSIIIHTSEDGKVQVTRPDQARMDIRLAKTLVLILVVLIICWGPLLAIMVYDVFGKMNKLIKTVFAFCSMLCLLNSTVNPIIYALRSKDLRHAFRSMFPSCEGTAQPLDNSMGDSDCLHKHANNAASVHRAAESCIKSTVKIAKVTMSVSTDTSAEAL

[21] = target: T6, Cannabinoid receptor 1; assay: SAR analysis of agonists of the Cannabinoid Receptor 1 using an Image-Based Assay - Set 4. [Related pubchem assays (depositor defined):AID2013, AID2026]; type: functional
[22] = target: T5, Cannabinoid receptor 2; assay: SAR analysis of agonists of the Cannabinoid Receptor 2 using an Image-Based Assay - Set 3. [Related pubchem assays (depositor defined):AID2013, AID2026]; type: functional
[23] = target: T4, G-protein coupled receptor 35; assay: SAR analysis of Agonists of the GPR35 Receptor using an Image-Based Assay - Set 4. [Related pubchem assays (depositor defined):AID2013, AID2026]; type: functional
[24] = Luminescence Cell-Based Dose Response HTS to Identify Inhibitors of 5'UTR Stem-Loop Driven Prion Protein mRNA Translation in H4 Neuroglioblastoma Cells. [Related pubchem assays: 1827 (Project Summary), 1813 (Primary HTS)]; type: functional
[25] = luciferase reporter signal suppression in cells – H4 neuroglioma cells, luminescence, dose response (AID 1990); type: functional, cell-based
[26] = target: X-box-binding protein 1 (Homo sapiens, UniProt P17861); type: functional, Cricetulus griseus;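 note: confirmatory dose-response counter-screen serving a CHOP assay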
Chain of X-box-binding protein 1 (P17861 whole entry): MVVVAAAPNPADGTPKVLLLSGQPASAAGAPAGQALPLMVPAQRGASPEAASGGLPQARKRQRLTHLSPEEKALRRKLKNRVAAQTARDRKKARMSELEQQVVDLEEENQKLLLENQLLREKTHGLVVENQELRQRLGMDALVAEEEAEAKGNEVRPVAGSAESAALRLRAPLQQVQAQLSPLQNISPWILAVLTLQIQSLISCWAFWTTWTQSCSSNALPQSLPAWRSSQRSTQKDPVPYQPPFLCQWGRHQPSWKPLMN

[27] = target: DNA damage-inducible transcript 3 protein (Mus musculus, UniProt P35639); type: functional, Cricetulus griseus
Chain of DNA damage-inducible transcript 3 protein (P35639 whole entry): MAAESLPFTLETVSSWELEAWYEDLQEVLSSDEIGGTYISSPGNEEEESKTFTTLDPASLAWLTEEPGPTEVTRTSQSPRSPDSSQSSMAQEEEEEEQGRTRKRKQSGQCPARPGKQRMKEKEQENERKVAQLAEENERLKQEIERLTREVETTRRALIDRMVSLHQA

[28] = alpha-synuclein stem-loop luciferase translation blockers – H4 neuroglioma cells, luminescence, confirmation (AID 1988); type: functional, cell-based

In the case of `CCc1nnc2n1N=C(c1ccc(-c3cc(Cl)ccc3Cl)o1)CS2`, the IC50 [1] was 44 µM (not active), the EC50 [2] was 27.1 µM (active) and the EC50 [3] was 95.9 µM (active). The EC50 [4] was 0.734 µM (active).
In the case of `O=C(/C(=C/c1cccc(Cl)c1)c1nc2ccccc2[nH]1)c1ccccc1`, the EC50 [5] was 8.48 µM (active), the IC50 [6] was 1.63 µM (active) and the EC50 [2] was 3.93 µM (active). For the same compound, the EC50 [7] was > 20 µM (inactive), the IC50 [8] was 3.14 µM (active) and the AC50 [9] was 1.97 µM (active). The IC50 [10] was > 20 µM (inactive), the EC50 [3] was 3.7 µM (active) and the AC50 [11] was 4.22 µM (active). For the same compound, the EC50 [12] was > 20 µM (inactive), the IC50 [13] was 13.4 µM (active) and the EC50 [14] was 0.755 µM (active).
In the case of `O=C(Cn1ccnc1)c1ccc(O)c(O)c1`, the IC50 [15] was > 100 µM (inactive) and the IC50 [16] was 5.37 µM (active).
For `Cc1ccc(-n2cc3c(-c4ccc(Cl)cc4)nnc(C)c3n2)cc1`, the IC50 [17] was 6.13 µM (active), the IC50 [18] was > 32 µM (inactive) and the IC50 [19] was 29.8 µM (inactive). The IC50 [20] was 0.87 µM (active), the EC50 [21] was > 32 µM (inactive) and the EC50 [22] was > 32 µM (inactive). For the same compound, the EC50 [23] was > 32 µM (inactive).
In the case of `CC(C)CCn1c(SCc2ccc(Cl)cc2)nc2c1c(=O)[nH]c(=O)n2C`, the EC50 [24] was 13.3 µM (active), the EC50 [25] was 14.3 µM (active) and the “Absolute IC50 (XBP1)” value [26] was 10 µM. For the same compound, the “Absolute IC50 (CHOP)” value [27] was less than 10 µM and the EC50 [28] was 11.6 µM (active).
